Source: PubChem BioAssay AID330 (DTP/NCI, 2004)
Where “and” joins values, the source holds several entries; their conditions need not be identical. Identical values can stand only once. Inconclusive results and toxic doses are left out. Rule for the calls: active = survival T/C of 150% or more; inactive = T/C below 125% in these data.

Test system: P388 leukemia ip, CD2F1 mice, survival T/C
Experiment: NCI In Vivo Anticancer Drug Screen. Data for tumor model P388 Leukemia (intraperitoneal) in CD2F1 (CDF1) mice
Details: endpoint: median survival time, higher = longer survival
How it was run: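 Mice carrying the transplanted tumor received test compound or vehicle. Survival was recorded in each group, and the value is the treated-group measurement divided by that of the vehicle-treated control group.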

[1] = dose: 50.0 mg/kg/injection, schedule: Q01DX005 (ip), vehicle: Klucel (hydroxypropylcellulose) (HPC)
[2] = dose: 100.0 mg/kg/injection, schedule: Q01DX005 (ip), vehicle: Klucel (hydroxypropylcellulose) (HPC)
[3] = dose: 200.0 mg/kg/injection, schedule: Q01DX005 (ip), vehicle: Klucel (hydroxypropylcellulose) (HPC)
[4] = dose: 50.0 mg/kg/injection, schedule: Q01DX005 (ip), vehicle: saline
[5] = dose: 100.0 mg/kg/injection, schedule: Q01DX005 (ip), vehicle: saline
[6] = dose: 200.0 mg/kg/injection, schedule: Q01DX005 (ip), vehicle: saline
[7] = dose: 12.5 mg/kg/injection, schedule: Q01DX009 (ip), vehicle: saline
[8] = dose: 50.0 mg/kg/injection, schedule: Q01DX009 (ip), vehicle: saline
[9] = dose: 25.0 mg/kg/injection, schedule: Q04DX002 (ip), vehicle: saline with Tween-80
[10] = dose: 50.0 mg/kg/injection, schedule: Q04DX002 (ip), vehicle: saline with Tween-80
[11] = dose: 50.0 mg/kg/injection, schedule: Q04DX003 (ip), vehicle: saline with Tween-80
[12] = dose: 60.0 mg/kg/injection, schedule: Q01DX005 (ip), vehicle: saline with Tween-80
[13] = dose: 120.0 mg/kg/injection, schedule: Q01DX005 (ip), vehicle: saline with Tween-80
[14] = dose: 240.0 mg/kg/injection, schedule: Q01DX005 (ip), vehicle: saline with Tween-80
[15] = dose: 100.0 mg/kg/injection, schedule: Q01DX009 (ip), vehicle: saline with Tween-80
[16] = dose: 200.0 mg/kg/injection, schedule: Q01DX009 (ip), vehicle: saline with Tween-80

Measured: T/C

O=C1OCc2c1cc1cc3c(cc1c2-c1ccc2c(c1)OCO2)OCO3
inactive: dose: 12.5 mg/kg/injection, schedule: Q01DX009 (ip), vehicle: Klucel (hydroxypropylcellulose) (HPC) 91 % of control | dose: 25.0 mg/kg/injection, schedule: Q01DX009 (ip), vehicle: Klucel (hydroxypropylcellulose) (HPC) 100 % of control | dose: 50.0 mg/kg/injection, schedule: Q01DX009 (ip), vehicle: Klucel (hydroxypropylcellulose) (HPC) 100 % of control | dose: 100.0 mg/kg/injection, schedule: Q01DX009 (ip), vehicle: Klucel (hydroxypropylcellulose) (HPC) 98 % of control

CC1(C)C(=O)c2cc(Cl)ccc2C1(C)C
inactive: [1] 103 % of control | [2] 102 % of control | [3] 97 % of control

CN1CCC(C(=O)NNc2ccccc2)CC1
inactive: [4] 100 % of control | [5] 102 % of control | [6] 102 % of control

CCC(C)NC(=O)C(C)O (stereo not drawn)
inactive: [4] 95 % of control | [5] 99 % of control | [6] 97 % of control

COc1ccc(CSC(=S)Nc2ccc(F)c(F)c2)cc1
inactive: dose: 50.0 mg/kg/injection, schedule: Q01DX009 (ip), vehicle: suspension in saline 108 % of control | dose: 100.0 mg/kg/injection, schedule: Q01DX009 (ip), vehicle: suspension in saline 106 % of control | dose: 200.0 mg/kg/injection, schedule: Q01DX009 (ip), vehicle: suspension in saline 99 % of control

Nc1ccc2cc3ccc(N)cc3nc2c1
inactive: [7] 122 % of control | dose: 15.0 mg/kg/injection, schedule: Q01DX005 (ip), vehicle: saline 109 % of control | [8] 95 % of control | dose: 50.0 mg/kg/injection, schedule: Q04DX003 (ip), vehicle: saline 86 % of control

CC1(C)Nc2cc3c(cc2-n2cccc21)oc1ccccc13
inactive: dose: 12.5 mg/kg/injection, schedule: Q01DX005 (ip), vehicle: Klucel (hydroxypropylcellulose) (HPC) 111 % of control | dose: 25.0 mg/kg/injection, schedule: Q01DX005 (ip), vehicle: Klucel (hydroxypropylcellulose) (HPC) 99 % of control | dose: 50.0 mg/kg/injection, schedule: Q01DX005 (ip), vehicle: DMSO 100 % of control | [1] 105 % of control | dose: 100.0 mg/kg/injection, schedule: Q01DX005 (ip), vehicle: DMSO 95 % of control | [2] 101 % of control | dose: 200.0 mg/kg/injection, schedule: Q01DX005 (ip), vehicle: DMSO 96 % of control | [3] 111 % of control | dose: 400.0 mg/kg/injection, schedule: Q01DX005 (ip), vehicle: DMSO 100 % of control | dose: 800.0 mg/kg/injection, schedule: Q01DX005 (ip), vehicle: DMSO 98 % of control

CC1SC2(C(=O)Nc3ccc(Cl)cc32)N(c2ccc(Cl)cc2)C1=O (stereo not drawn)
inactive: dose: 60.0 mg/kg/injection, schedule: Q01DX005 (ip), vehicle: Klucel (hydroxypropylcellulose) (HPC) 105 % of control | dose: 120.0 mg/kg/injection, schedule: Q01DX005 (ip), vehicle: Klucel (hydroxypropylcellulose) (HPC) 105 % of control | dose: 240.0 mg/kg/injection, schedule: Q01DX005 (ip), vehicle: Klucel (hydroxypropylcellulose) (HPC) 108 % of control

O=C(CBr)NC1OC(CO)C(O)C(O)C1O (stereo not drawn)
inactive: dose: 2.5 mg/kg/injection, schedule: Q01DX009 (ip), vehicle: saline 99 % of control | dose: 5.0 mg/kg/injection, schedule: Q01DX009 (ip), vehicle: saline 112 % of control | dose: 10.0 mg/kg/injection, schedule: Q01DX009 (ip), vehicle: saline 108 % of control

N#Cc1sc(SCC(=O)O)c(-[n+]2ccccc2)c1N
inactive: [9] 95 % of control | [10] 104 % of control | dose: 100.0 mg/kg/injection, schedule: Q04DX002 (ip), vehicle: saline with Tween-80 99 % of control

O=C1c2cc3c(-c4ccccc4)sc(-c4ccccc4)c3cc2C(=O)c2c(O)ccc(O)c21
inactive: dose: 12.5 mg/kg/injection, schedule: Q04DX002 (ip), vehicle: saline with Tween-80 90 % of control | [9] 91 % of control | [10] 98 % of control and 88 % of control

COc1cc2cc(-c3cc(OC)c(OC)c(OC)c3)c3c(c2cc1OC)CNC3
inactive: dose: 3.12 mg/kg/injection, schedule: Q04DX003 (ip), vehicle: saline with Tween-80 100 % of control | dose: 6.25 mg/kg/injection, schedule: Q04DX003 (ip), vehicle: saline with Tween-80 105 % of control | dose: 12.5 mg/kg/injection, schedule: Q04DX003 (ip), vehicle: saline with Tween-80 100 % of control | dose: 25.0 mg/kg/injection, schedule: Q04DX003 (ip), vehicle: saline with Tween-80 98 % of control | [11] 97 % of control

COc1ccccc1NC(=O)CC(=O)N1N=C(C)C(N=Nc2cccc(C(=O)O)c2)C1=O (stereo not drawn)
inactive: [12] 98 % of control | [13] 98 % of control

COC(=O)CC1OCC=C2CN3CCC45C6=CC(=O)C(=O)C([N+](=O)[O-])=C6NC4C1C2CC35 (stereo not drawn)
inactive: dose: 7.5 mg/kg/injection, schedule: Q01DX005 (ip), vehicle: suspension in saline 101 % of control | dose: 15.0 mg/kg/injection, schedule: Q01DX005 (ip), vehicle: suspension in saline 100 % of control

CCOC(=O)C1(c2ccccc2)CCN(c2c3ccccc3nc3ccccc23)CC1
inactive: dose: 25.0 mg/kg/injection, schedule: Q04DX003 (ip), vehicle: Klucel (hydroxypropylcellulose) (HPC) 112 % of control | dose: 50.0 mg/kg/injection, schedule: Q04DX003 (ip), vehicle: Klucel (hydroxypropylcellulose) (HPC) 111 % of control | dose: 100.0 mg/kg/injection, schedule: Q04DX003 (ip), vehicle: Klucel (hydroxypropylcellulose) (HPC) 111 % of control and 115 % of control

CSCCC(NC(=O)c1cnc2ccccc2c1)C(N)=O (stereo not drawn)
inactive: [12] 103 % of control | [13] 97 % of control | [14] 87 % of control

CCN(CC)C(=O)c1cccc2c1OCO2
inactive: [12] 94 % of control | [13] 98 % of control | [14] 95 % of control

CSCc1cc([N+](=O)[O-])ccc1N
inactive: dose: 100.0 mg/kg/injection, schedule: Q01DX001 (ip), vehicle: saline with Tween-80 91 % of control | dose: 200.0 mg/kg/injection, schedule: Q01DX001 (ip), vehicle: saline with Tween-80 98 % of control

CCOC(=O)C1OC(C2(C)OC3(OC4(C=CC3O)OC(C(C)C(=O)C(C)C(O)C(C)CC(C)c3c(Cl)cc(C)c(O)c3C(=O)O)C(C)CC4C)C(C)C2OC)CC1O (stereo not drawn)
inactive: dose: 1.25 mg/kg/injection, schedule: Q01DX005 (ip), vehicle: Klucel (hydroxypropylcellulose) (HPC) 107 % of control | dose: 2.5 mg/kg/injection, schedule: Q01DX005 (ip), vehicle: Klucel (hydroxypropylcellulose) (HPC) 100 % of control

CCN(C)N=Nc1cccnc1
inactive: [7] 103 % of control and 92 % of control and 97 % of control | dose: 25.0 mg/kg/injection, schedule: Q01DX009 (ip), vehicle: saline 100 % of control and 102 % of control and 92 % of control | [8] 103 % of control and 111 % of control and 91 % of control | dose: 100.0 mg/kg/injection, schedule: Q01DX009 (ip), vehicle: saline 107 % of control and 110 % of control

Cc1ccc(NC(=O)N(C)N=O)cc1
inactive: dose: 50.0 mg/kg/injection, schedule: Q01DX009 (ip), vehicle: saline with Tween-80 95 % of control | [11] 100 % of control | [15] 90 % of control | dose: 100.0 mg/kg/injection, schedule: Q04DX003 (ip), vehicle: saline with Tween-80 100 % of control | [16] 90 % of control | dose: 200.0 mg/kg/injection, schedule: Q04DX003 (ip), vehicle: saline with Tween-80 100 % of control

O=C1N=C2C=CC=CN2C(=O)C1Cc1ccccc1 (stereo not drawn)
inactive: [15] 120 % of control | [16] 110 % of control | dose: 400.0 mg/kg/injection, schedule: Q01DX009 (ip), vehicle: saline with Tween-80 90 % of control

COCCN1C(N)=C(C#N)C=C2CCCC(N=C(C#N)C#N)=C21
inactive: [12] 101 % of control | dose: 100.0 mg/kg/injection, schedule: Q01DX005 (ip), vehicle: saline with Tween-80 102 % of control | dose: 200.0 mg/kg/injection, schedule: Q01DX005 (ip), vehicle: saline with Tween-80 102 % of control

CC(=O)NCC#N
inactive: dose: 100.0 mg/kg/injection, schedule: Q01DX001 (ip), vehicle: saline 107 % of control | dose: 200.0 mg/kg/injection, schedule: Q01DX001 (ip), vehicle: saline 102 % of control | dose: 400.0 mg/kg/injection, schedule: Q01DX001 (ip), vehicle: saline 121 % of control
